Experiments:
Bacillus Coli Immobilis = assay: Agar dilution minimum inhibition concentration, aerobic growth base; type: cell-based; conditions: 37° C., 48 hours, mg antibiotic per liter
Streptococcus Faccalis = assay: as above; type: cell-based; conditions: 37° C., 48 hours, mg antibiotic per liter
[1] = test system: Bacillus Canalis Capsulatus; assay: as above; type: cell-based; conditions: 37° C., 48 hours, mg antibiotic per liter
Clostridium Perfringens = type: cell-based; conditions: anaerobic (nitrogen), 37° C., 48 hours, mg antibiotic per liter
Citrobacter Sp. = assay: Agar dilution minimum inhibition concentration, aerobic growth base; type: cell-based; conditions: 37° C., 48 hours, mg antibiotic per liter
Propionibacterium = assay: Agar dilution minimum inhibition concentration, anaerobic growth base; type: cell-based; conditions: anaerobic (nitrogen), 37° C., 48 hours, mg antibiotic per liter
Fusobacterium Nuleatum = assay: as above; type: cell-based; conditions: anaerobic (nitrogen), 37° C., 48 hours, mg antibiotic per liter
[2] = test system: Bifidobacterium Adolescents; assay: as above; type: cell-based; conditions: anaerobic (nitrogen), 37° C., 48 hours, mg antibiotic per liter
Streptococcus Psittac = assay: Agar dilution minimum inhibition concentration, aerobic growth base; type: cell-based; conditions: 37° C., 48 hours, mg antibiotic per liter
Bacteroides Ovatus = assay: Agar dilution minimum inhibition concentration, anaerobic growth base; type: cell-based; conditions: anaerobic (nitrogen), 37° C., 48 hours, mg antibiotic per liter
Bacteroides Fragilis = assay: as above; type: cell-based; conditions: anaerobic (nitrogen), 37° C., 48 hours, mg antibiotic per liter
Serratia = assay: Agar dilution minimum inhibition concentration, aerobic growth base; type: cell-based; conditions: 37° C., 48 hours, mg antibiotic per liter
Staphylococcus Aureus = assay: as above; type: cell-based; conditions: 37° C., 48 hours, mg antibiotic per liter
Peptostrepococcus = conditions: anaerobic (nitrogen), 37° C., 48 hours, mg antibiotic per liter
Description: (§1) To measure the effectiveness of the our antimicrobial gauze, we tested an antibiotic containing soluble hemostatic gauze material made in accordance with the present invention against the same antibiotic alone. We prepared a growth base for anaeroboic bacteria by mixing 20 grams glucose, 5 grams NaCl, 10 grams protein base, 5 grams yeast powder, 3 grams soluble starch, 20 grams agar and 0.4 grams amino acid. These materials were dissolved in 150 ml distilled water to form a liver paste solution. Then we added 1000 ml. water, adjusted the Ph to 7.2 and autoclaved the material. We prepared another growth base for aerobic bacteria by combining 10 grams beef paste, 10 grams protein base, 3 grams soluble starch, 5 grams NaCl and 20 grams agar in distilled water. Then we added 1000 ml. water, adjusted the Ph to 7.2 and autoclaved the material. We also prepared a series of solutions of the antibiotic chlindamycin in a Ph7.8 phospharese solution. The solutions were: 1280 mg antibiotic/L, 640 mg/L, 320 mg/l, 160 mg/L, 80 mg/L, 40 mg/L, 20 mg/l, 10 mg/L, 5 mg/L, 2.5 mg/L and 1.25 mg/L. We then added 2 ml of each of the diluted antibiotic solutions into a petri dish. Next we added 18 ml of warm (50° C.) autoclaved bacteria growth base prepared as described above for the type of bacteria (anaerobic or aerobic) to be tested to petri dishes to make growth plates. At that point we had growth plates with final antibiotic concentrations of 128, 64, 32, 16, 8, 4, 2, 1, 0.5, 0.25, and 0.125 mg antibiotic per liter.
(§2) We prepared a second series of growth bases with anti-microbial soluble hemostatic gauze to which the antibiotic chlindamycin had been linked. The gauze was prepared in accordance with the following steps.

Actinomyces = conditions: anaerobic (nitrogen), 37° C., 48 hours, mg antibiotic per liter
Description: as §1, §2

Bacteroides Vulgatus = conditions: anaerobic (nitrogen), 37° C., 48 hours, mg antibiotic per liter
Description: as §1, §2

Bifidobacterium Longum = assay: Agar dilution minimum inhibition concentration, anaerobic growth base; type: cell-based; conditions: anaerobic (nitrogen), 37° C., 48 hours, mg antibiotic per liter
Klebsiella Pneumoniae = assay: Agar dilution minimum inhibition concentration, aerobic growth base; type: cell-based; conditions: 37° C., 48 hours, mg antibiotic per liter
Lactobacillus Plantarum = assay: Agar dilution minimum inhibition concentration, anaerobic growth base; type: cell-based; conditions: anaerobic (nitrogen), 37° C., 48 hours, mg antibiotic per liter
Bifidobacterium Infantis = assay: as above; type: cell-based; conditions: anaerobic (nitrogen), 37° C., 48 hours, mg antibiotic per liter
Bacillus Coli Similis = assay: Agar dilution minimum inhibition concentration, aerobic growth base; type: cell-based; conditions: 37° C., 48 hours, mg antibiotic per liter
Streptococcus Gamma = assay: as above; type: cell-based; conditions: 37° C., 48 hours, mg antibiotic per liter
Pseudomonas Aeruginosa = assay: as above; type: cell-based; conditions: 37° C., 48 hours, mg antibiotic per liter
[3] = test system: Staphylococcus Epidermidis; assay: as above; type: cell-based; conditions: 37° C., 48 hours, mg antibiotic per liter
[4] = test system: Lactobacillus Acidophilus; assay: Agar dilution minimum inhibition concentration, anaerobic growth base; type: cell-based; conditions: anaerobic (nitrogen), 37° C., 48 hours, mg antibiotic per liter
Bacillus Pyocyaneus = assay: Agar dilution minimum inhibition concentration, aerobic growth base; type: cell-based; conditions: 37° C., 48 hours, mg antibiotic per liter

Compound: CCC[C@@H]1C[C@@H](C(=O)N[C@@H]([C@H]2O[C@H](SC)[C@H](O)[C@@H](O)[C@H]2O)[C@H](C)Cl)N(C)C1 [Chlindamycin, chlindamycin]
- Minimum Inhibited Concentration (Bacillus Coli Immobilis): 128 mg/L
- Minimum Inhibited Concentration (Streptococcus Faccalis): 1 mg/L
- Minimum Inhibited Concentration [1]: 64 mg/L
- Minimum Inhibited Concentration (Clostridium Perfringens): 0.125 mg/L
- Minimum Inhibited Concentration (Citrobacter Sp.): 64 mg/L
- Minimum Inhibited Concentration (Propionibacterium): 0.25 mg/L
- Minimum Inhibited Concentration (Fusobacterium Nuleatum): 4 mg/L
- Minimum Inhibited Concentration [2]: 16 mg/L
- Minimum Inhibited Concentration (Streptococcus Psittac): 1 mg/L
- Minimum Inhibited Concentration (Bacteroides Ovatus): 2 mg/L
- Minimum Inhibited Concentration (Bacteroides Fragilis): 0.5 mg/L
- Minimum Inhibited Concentration (Serratia): 32 mg/L
- Minimum Inhibited Concentration (Staphylococcus Aureus): 1 mg/L
- Minimum Inhibited Concentration (Peptostrepococcus): 0.125 mg/L
- Minimum Inhibited Concentration (Actinomyces): 0.125 mg/L
- Minimum Inhibited Concentration (Bacteroides Vulgatus): 0.125 mg/L
- Minimum Inhibited Concentration (Bifidobacterium Longum): 64 mg/L
- Minimum Inhibited Concentration (Klebsiella Pneumoniae): 32 mg/L
- Minimum Inhibited Concentration (Lactobacillus Plantarum): 64 mg/L
- Minimum Inhibited Concentration (Bifidobacterium Infantis): 64 mg/L
- Minimum Inhibited Concentration (Bacillus Coli Similis): 128 mg/L
- Minimum Inhibited Concentration (Streptococcus Gamma): 1 mg/L
- Minimum Inhibited Concentration (Pseudomonas Aeruginosa): 128 mg/L
- Minimum Inhibited Concentration [3]: 0.5 mg/L
- Minimum Inhibited Concentration [4]: 32 mg/L
- Minimum Inhibited Concentration (Bacillus Pyocyaneus): 128 mg/L
